From ChEMBL document CHEMBL1141332, “Cytotoxic metabolites from an Indonesian sponge Lendenfeldia sp” (J Nat Prod, 2007)

Legend:
Type in all cases: functional
MDA-MB-435 = assay: Cytotoxicity against human MDA-MB-435 cells
TK-10 = assay: Cytotoxicity against human TK10 cells
RXF 393 = assay: Cytotoxicity against human RXF393 cells
SK-OV-3 = assay: Cytotoxicity against human SK-OV-3 cells
OVCAR-4 = assay: Cytotoxicity against human OVCAR4 cells
BT-549 = assay: Cytotoxicity against human BT549 cells
NCI/ADR-RES = assay: Cytotoxicity against human NCI/ADR-RES cells
NCI-H322M = assay: Cytotoxicity against human NCI-H322M cells
PC-3 = assay: Cytotoxicity against human PC3 cells
[1] = Cytotoxicity against human HS578T cells; details: Hs-578T
Malme-3M = assay: Cytotoxicity against human MALME-3M cells
NCI-H460 = assay: Cytotoxicity against human NCI-H460 cells
UACC-62 = assay: Cytotoxicity against human UACC62 cells
SNB-75 = assay: Cytotoxicity against human SNB75 cells
HCC 2998 = assay: Cytotoxicity against human HCC2998 cells
HT-29 = assay: Cytotoxicity against human HT29 cells
COLO 205 = assay: Cytotoxicity against human COLO205 cells
LOX IMVI = assay: Cytotoxicity against human LOX IMVI cells
HOP-92 = assay: Cytotoxicity against human HOP92 cells
IGROV-1 = assay: Cytotoxicity against human IGROV1 cells
SK-MEL-28 = assay: Cytotoxicity against human SK-MEL-28 cells
SNB-19 = assay: Cytotoxicity against human SNB19 cells; details: read-out: Log LC50 (the source's name) (converted)
OVCAR-5 = assay: Cytotoxicity against human OVCAR5 cells
NCI-H23 = assay: Cytotoxicity against human NCI-H23 cells
OVCAR-3 = assay: Cytotoxicity against human OVCAR-3 cells
HCT-116 = assay: Cytotoxicity against human HCT116 cells
A549 = assay: Cytotoxicity against human A549 cells
MOLT-4 = assay: Cytotoxicity against human MOLT4 cells
UACC-257 = assay: Cytotoxicity against human UACC257 cells
NCI-H226 = assay: Cytotoxicity against human NCI-H226 cells
SN12C = assay: Cytotoxicity against human SN12C cells
RPMI-8226 = assay: Cytotoxicity against human RPMI8226 cells
KM12 = assay: Cytotoxicity against human KM12 cells
EKVX = assay: Cytotoxicity against human EKVX cells
HL-60 = assay: Cytotoxicity against human HL60 cells; details: Homo sapiens, HL-60
SF-539 = assay: Cytotoxicity against human SF539 cells
K562 = assay: Cytotoxicity against human K562 cells
UO-31 = assay: Cytotoxicity against human UO31 cells
786-0 = assay: Cytotoxicity against human 786-0 cells
SK-MEL-2 = assay: Cytotoxicity against human SK-MEL-2 cells
DU-145 = assay: Cytotoxicity against human DU145 cells
SK-MEL-5 = assay: Cytotoxicity against human SK-MEL-5 cells
M14 = assay: Cytotoxicity against human M14 cells
MCF7 = assay: Cytotoxicity against human MCF7 cells
ACHN = assay: Cytotoxicity against human ACHN cells
[2] = read-out: Log LC50 (the source's name) (converted)

CC(=O)O[C@@H]1C[C@H]2[C@]3(C)CC[C@H]4C(C)(C)CCC[C@]4(C)[C@H]3C[C@H](O)[C@]2(C)[C@@H](C=O)[C@@H]1C(C)=O [SCALARHERBACIN A]
GI50 (MDA-MB-435): 1450 nM
LC50 (MDA-MB-435): 6760 nM
TGI (MDA-MB-435; read-out: Log TGI (converted)): 3090 nM
GI50 (TK-10): 1380 nM
LC50 (TK-10): 6610 nM
TGI (TK-10; read-out: Log TGI (converted)): 3020 nM
GI50 (RXF 393): 1150 nM
LC50 (RXF 393): 5370 nM
TGI (RXF 393; read-out: Log TGI (converted)): 2510 nM
GI50 (SK-OV-3): 2000 nM
CC50 (SK-OV-3; [2]): 8130 nM
TGI (SK-OV-3; read-out: Log TGI (converted)): 3980 nM
GI50 (OVCAR-4): 912 nM
CC50 (OVCAR-4; [2]): 6610 nM
TGI (OVCAR-4; read-out: Log TGI (converted)): 2510 nM
GI50 (BT-549): 562 nM
LC50 (BT-549): 4370 nM
TGI (BT-549; read-out: Log TGI (converted)): 1780 nM
GI50 (NCI/ADR-RES): 1660 nM
LC50 (NCI/ADR-RES): 7080 nM
TGI (NCI/ADR-RES; read-out: Log TGI (converted)): 3470 nM
GI50 (NCI-H322M): 2140 nM
CC50 (NCI-H322M; [2]): 8710 nM
TGI (NCI-H322M; read-out: Log TGI (converted)): 4270 nM
GI50 (PC-3): 741 nM
LC50 (PC-3): 5250 nM
TGI (PC-3; read-out: Log TGI (converted)): 2140 nM
GI50 [1]: 1020 nM
LC50 [1]: 8910 nM
TGI ([1]; read-out: Log TGI (converted)): 3020 nM
GI50 (Malme-3M): 1950 nM
TGI (Malme-3M; read-out: Log TGI (converted)): 3890 nM
GI50 (NCI-H460): 1450 nM
CC50 (NCI-H460; [2]): 6760 nM
TGI (NCI-H460; read-out: Log TGI (converted)): 3160 nM
GI50 (UACC-62): 1580 nM
CC50 (UACC-62; [2]): 5500 nM
TGI (UACC-62; read-out: Log TGI (converted)): 2950 nM
GI50 (SNB-75): 1580 nM
CC50 (SNB-75; [2]): 5500 nM
TGI (SNB-75; read-out: Log TGI (converted)): 2950 nM
GI50 (HCC 2998): 1510 nM
CC50 (HCC 2998; [2]): 5620 nM
TGI (HCC 2998; read-out: Log TGI (converted)): 2950 nM
GI50 (HT-29): 309 nM
CC50 (HT-29; [2]): 3800 nM
TGI (HT-29; read-out: Log TGI (converted)): 1100 nM
GI50 (COLO 205): 537 nM
CC50 (COLO 205; [2]): 5250 nM
TGI (COLO 205; read-out: Log TGI (converted)): 1860 nM
GI50 (LOX IMVI): 1000 nM
CC50 (LOX IMVI; [2]): 4680 nM
TGI (LOX IMVI; read-out: Log TGI (converted)): 2140 nM
GI50 (HOP-92): 1320 nM
CC50 (HOP-92; [2]): 5500 nM
TGI (HOP-92; read-out: Log TGI (converted)): 2690 nM
GI50 (IGROV-1): 1950 nM
CC50 (IGROV-1; [2]): 8320 nM
TGI (IGROV-1; read-out: Log TGI (converted)): 4070 nM
GI50 (SK-MEL-28): 389 nM
TGI (SK-MEL-28; read-out: Log TGI (converted)): 1290 nM
CC50 (SNB-19): 1660 nM
GI50 (OVCAR-5): 1320 nM
CC50 (OVCAR-5; [2]): 5130 nM
TGI (OVCAR-5; read-out: Log TGI (converted)): 2630 nM
GI50 (NCI-H23): 1660 nM
CC50 (NCI-H23; [2]): 6170 nM
TGI (NCI-H23; read-out: Log TGI (converted)): 3240 nM
GI50 (OVCAR-3): 1120 nM
CC50 (OVCAR-3; [2]): 5500 nM
TGI (OVCAR-3; read-out: Log TGI (converted)): 2510 nM
GI50 (HCT-116): 407 nM
CC50 (HCT-116; [2]): 3720 nM
TGI (HCT-116; read-out: Log TGI (converted)): 1380 nM
GI50 (A549): 1230 nM
CC50 (A549; [2]): 6610 nM
TGI (A549; read-out: Log TGI (converted)): 2820 nM
GI50 (MOLT-4): 324 nM
CC50 (MOLT-4; [2]): 4170 nM
TGI (MOLT-4; read-out: Log TGI (converted)): 1120 nM
GI50 (UACC-257): 2190 nM
CC50 (UACC-257; [2]): 27500 nM
TGI (UACC-257; read-out: Log TGI (converted)): 5250 nM
GI50 (NCI-H226): 1580 nM
CC50 (NCI-H226; [2]): 6760 nM
TGI (NCI-H226; read-out: Log TGI (converted)): 3240 nM
GI50 (SN12C): 1350 nM
TGI (SN12C; read-out: Log TGI (converted)): 2750 nM
GI50 (RPMI-8226): 407 nM
CC50 (RPMI-8226; [2]): 13200 nM
TGI (RPMI-8226; read-out: Log TGI (converted)): 2090 nM
GI50 (KM12): 1480 nM
CC50 (KM12; [2]): 8510 nM
TGI (KM12; read-out: Log TGI (converted)): 3550 nM
GI50 (EKVX): 1320 nM
CC50 (EKVX; [2]): 5750 nM
TGI (EKVX; read-out: Log TGI (converted)): 2750 nM
GI50 (HL-60): 1320 nM
CC50 (HL-60; [2]): 8510 nM
TGI (HL-60; read-out: Log TGI (converted)): 3390 nM
GI50 (SF-539): 417 nM
TGI (SF-539; read-out: Log TGI (converted)): 1580 nM
GI50 (K562): 1740 nM
CC50 (K562; [2]): 7760 nM
TGI (K562; read-out: Log TGI (converted)): 3720 nM
GI50 (UO-31): 1230 nM
TGI (UO-31; read-out: Log TGI (converted)): 2570 nM
GI50 (786-0): 479 nM
CC50 (786-0; [2]): 4070 nM
TGI (786-0; read-out: Log TGI (converted)): 1620 nM
GI50 (SK-MEL-2): 2240 nM
CC50 (SK-MEL-2; [2]): 16600 nM
TGI (SK-MEL-2; read-out: Log TGI (converted)): 4790 nM
GI50 (DU-145): 1230 nM
LC50 (DU-145): 5130 nM
TGI (DU-145; read-out: Log TGI (converted)): 2510 nM
GI50 (SK-MEL-5): 1290 nM
CC50 (SK-MEL-5; [2]): 5250 nM
TGI (SK-MEL-5; read-out: Log TGI (converted)): 2630 nM
GI50 (M14): 1450 nM
CC50 (M14; [2]): 5370 nM
TGI (M14; read-out: Log TGI (converted)): 2750 nM
GI50 (MCF7): 1820 nM
LC50 (MCF7): 70800 nM
TGI (MCF7; read-out: Log TGI (converted)): 6170 nM
GI50 (ACHN): 457 nM
LC50 (ACHN): 3980 nM
TGI (ACHN; read-out: Log TGI (converted)): 1550 nM
